Tests used:
two-spotted spider mites [1] = assay: Miticidal test on two-spotted spider mites (by dipping); type: in vivo, Tetranychus urticae; design: scale not given here; conditions: dipping of soybean seedlings, active ingredient 500 ppm, 25° C., 13 days
Experimental: (§1) Wettable powders were prepared in accordance with Formulation Example 2 and diluted with water to an active ingredient concentration of 500 ppm. Soybean seedlings which had been inoculated with imago two-spotted spider mites were dipped in the resulting solutions and dried in air. The treated seedlings were placed in a thermostatic chamber at 25° C. for 13 days, and the mite survivors were counted for calculation of the miticidal value by using Equation 2. The test was carried out by one series system.

two-spotted spider mites [2] = assay: Miticidal test on two-spotted spider mites (by soil drenching); type: in vivo, Tetranychus urticae; design: scale not given here; conditions: active ingredient 100 ppm, 5 ml per 100 g soil, 25° C., 13 days
Experimental: as §1, with “100” for “500”, “100 g of the soil in cups with soybean” for “Soybean”, “drenched with 5 ml of” for “dipped in”, “solutions.” for “solutions and dried in air.”, “[…]” for “thermostatic”, “2.” for “2. The test was carried out by one series system.”

brown planthoppers = assay: Insecticidal test on brown planthoppers; type: in vivo, Nilaparvata lugens; conditions: active ingredient 500 ppm, germinating rice immersed, 4th-instar larvae, 25° C., 6 days
Experimental: Wettable powders were prepared in accordance with Formulation Example 2 and diluted with water to an active ingredient concentration of 500 ppm. Germinating rice was immersed in the resulting solutions and put in a plastic cup with a capacity of 60 ml. Ten 4th-instar larvae of brown planthoppers were released to the cup, and the cup was covered and placed in a thermostatic chamber at 25° C. for 6 days, and the survivors were counted for calculation of the insecticidal degree by using Equation 1. The test was carried out by one series system.

[3] = test system: southern root-knot nematodes; assay: Nemastatic test on southern root-knot nematodes; type: in vivo, Meloidogyne sp.; conditions: diluted solution 20 ppm mixed 1:1 with suspension of second stage larvae, 25° C., 5 days
Experimental: Compounds of the present invention (5 parts) and Tween 20 (tradename for polyoxyethylene sorbitan monolaurate) (1 part) as a spreader were dissolved n N,N-dimethylformamide (94 parts) to prepare 5% emulsifiable concentrates of the compounds of the present invention. Distilled water was added to the emulsifiable concentrates to prepare diluted solutions having a concentration of the compounds of the present invention of 20 ppm. 0.5 ml of the diluted solutions and 0.5 ml of water suspensions containing 100 second stage larvae of southern root-knot nematodes were mixed, and the mixture were placed in a thermostatic chamber at 25° C. for 5 days, and the survivors were counted for calculation of the nemastatic degree by using Equation 3. The test was carried out by two series system.

SMILES | Miticidal value (two-spotted spider mites [1]) | Miticidal value (two-spotted spider mites [2]) | Insecticidal degree (%) (brown planthoppers) | Nemastatic degree (%) [3]
C#CCNc1nc(SC(F)(F)C(F)(F)F)nn1-c1cc([S+]([O-])CC(F)(F)F)c(C)cc1F (racemic) [Compound 194] | 100 | 100 | 100% | 
CC(=O)Nc1nc([S+]([O-])CC(F)(F)F)nn1-c1cc([S+]([O-])CC(F)(F)F)c(C)cc1F (centres unmarked) [Compound 157] | 100 | 100 | 100% | 
CCC(C)(C)c1nc(N)n(-c2cc([S+]([O-])CC(F)(F)F)c(C)cc2F)n1 (centres unmarked) [Compound 119] | 100 | 100 | 90% | 
Cc1cc(F)c(-n2nc(SC(F)F)nc2N)cc1[S+]([O-])CC(F)(F)F (centres unmarked) [Compound 28] | 100 | 100 | 100% | 
Cc1cc(F)c(-n2nc(C(C)C)nc2N)cc1[S+]([O-])CC(F)(F)F (centres unmarked) [Compound 111] | 100 | 100 | 100% | 
Cc1cc(F)c(-n2nc(C(C(F)(F)F)C(F)(F)F)nc2N)cc1[S+]([O-])CC(F)(F)F (racemic) [Compound 183] | 100 | 100 |  | 
CNC(=O)Nc1nc(C(F)(F)F)nn1-c1cc([S+]([O-])CC(F)(F)F)c(C)cc1F (centres unmarked) [Compound 169] | 100 | 100 | 100% | 
Cc1cc(F)c(-n2nc(C(C)(C)C)nc2N)cc1[S+]([O-])CC(F)(F)F (centres unmarked) [Compound 145] | 100 | 100 |  | 
O=Cc1ccc(-n2cnc(C(F)(F)F)n2)cc1[S+]([O-])CC(F)(F)F (centres unmarked) [a, reference compound] | 100 | 0 |  | 
CNc1nc(C(F)(F)F)nn1-c1cc([S+]([O-])CC(F)(F)F)c(C)cc1Cl (centres unmarked) [Compound 98] | 100 | 100 |  | 
CNc1nc(C(F)(F)F)nn1-c1cc([S+]([O-])CC(F)(F)F)c(C)cc1C (centres unmarked) [Compound 147] | 100 | 100 |  | 
Cc1cc(C)c([S+]([O-])CC(F)(F)F)cc1-n1nc(C(F)(F)F)nc1N (centres unmarked) [Compound 56] | 100 | 100 |  | 
N#Cc1ccc(-n2nc(C(F)(F)F)nc2N)cc1[S+]([O-])CC(F)(F)F (centres unmarked) [Compound 121] | 100 | 100 |  | 
[O-][S+](CC(F)(F)F)c1cc(-n2cnc(C(F)(F)F)n2)ccc1CF (centres unmarked) [b, reference compound] | 99 | 0 |  | 
Cc1cc(F)c(-n2nc(CC(C)(C)C)nc2N)cc1[S+]([O-])CC(F)(F)F (centres unmarked) [Compound 107] | 100 | 100 |  | 
Cc1cc(F)c(-n2nc(C(C)(C)C#N)nc2N)cc1[S+]([O-])CC(F)(F)F (centres unmarked) [Compound 104] | 100 | 100 |  | 
Cc1cc(F)c(-n2nc(SC(F)(F)C(F)(F)F)nc2N)cc1[S+]([O-])CC(F)(F)F (racemic) [Compound 177] | 100 | 100 |  | 
Cc1cc(Cl)c(-n2nc(C(F)(F)F)nc2N)cc1[S+]([O-])CC(F)(F)F (centres unmarked) [Compound 8, [5-(5-amino-3-trifluoromethyl-1,2,4-triazolyl)-4-chloro-2-methylphenyl]2,2,2-trifluoroethyl sulfoxide] | 100 | 100 |  | 
Cc1ccc(-n2nc(C(F)(F)F)nc2N)cc1SCC(F)(F)F [Compound 124] |  |  | 100% | 100%
Cc1cc(F)c(-n2nc([S+](C)[O-])nc2N)cc1SCC(F)(F)F (centres unmarked) [Compound 17] |  |  | 100% | 99%
CC(=O)Nc1nc(C(F)(F)F)nn1-c1cc(SCC(F)(F)F)c(C)cc1F [Compound 75] |  |  | 100% | 94%
CNC(=O)Nc1nc(C(F)(F)F)nn1-c1cc(SCC(F)(F)F)c(C)cc1F [Compound 168] |  |  | 100% | 100%

Reference: US7872036B2, “3-triazolylphenyl sulfide derivative and insecticide, miticide and nematicide containing it as an active ingredient” (Kumiai Chemical Industry Co., Ltd., priority 2004, dated 2011)
